Assay results taken from paper PMC5869871 (Investigational New Drugs, 2017).
Like-named read-outs stand apart in the source and are kept apart here. Marks after values point to notes of the source that are not given here. Each block holds one compound with its values, some of them ahead of it.

How the values were obtained:
CYP3A4 = tested on: CYP3A4; parameters: method as in Takeda data on file; details: ref Takeda data on file; cited from earlier work
[1] = cited from earlier work
[2] = Study 2: single-dose plasma pharmacokinetics of alisertib, M1 and M2 with and without itraconazole; details: for t1/2 / Tmax / half-life: single 30 mg alisertib ECT; for t1/2 / half-life: arithmetic mean (SD); for Tmax: median (minimum, maximum); for half-life: t1/2, Study 2
Procedure: (§1) Study 2 was a phase 1, open-label study in patients with advanced solid tumors or relapsed/refractory lymphomas.
(§2) Patients also received oral solution doses of 200 mg itraconazole QD on Days 5 through 13. […] Itraconazole was administered in the study center on Days 5, and 10 through 13 with the remaining doses being administered at home by the patients.
(§3) [1, 2] […] The quantitation range for the M1 assay was 2.00 to 1000 ng/mL, the assay precision ranged from 3.0 to 4.1% and the mean accuracy ranged from −1.5 to 0.3%. The quantitation range for the M2 assay was 2.00 to 1000 ng/mL, the assay precision ranged from 3.0 to 4.3% and the mean accuracy ranged from −1.1 to 0.7%.
(§4) Pharmacokinetic parameters were estimated where data permitted using non-compartmental analysis with Phoenix™ WinNonlin® Version 6.3 (Pharsight Corporation, Mountain View, CA, USA). […] The AUC parameters were estimated using the linear-log trapezoidal rule.
(§5) The analyses utilized a fixed-sequence repeated measures mixed-effects linear model. All inferences were based on least squares (LS) means estimated from this model. All statistical analyses were conducted using SAS version 9.2 (SAS Institute, NC, USA).

[3] = Study 2 safety assessment (adverse events, laboratory results, vital signs, ECG); assay type: in vivo, human
Procedure: as §1, §2

[4] = Study 1 safety assessment (adverse events, laboratory results, vital signs, ECG); assay type: in vivo, human
Procedure: Safety was evaluated based on the incidence of adverse events, and changes from baseline in vital signs, ECGs, weight and clinical laboratory results and ECOG status.

[5] = Study 1: single-dose plasma pharmacokinetics of alisertib, M1 and M2 with and without esomeprazole or rifampin; details: for t1/2 / half-life: arithmetic mean (SD); for AUC(0-inf): AUC0-inf; for AUC(0-t): AUC0-last
Procedure: (§6) Study 1 was a phase 1, open-label, fixed sequence, 2-cycle study in patients with advanced solid tumors or lymphomas.
(§7) In Cycle 2, patients also received single daily doses of either esomeprazole (40 mg QD delayed-release capsules) or rifampin (600 mg once daily [QD]) on Days 1 through 10.
(§8) Patients attended the study center on the day prior to the first dose (Day −1) for baseline assessments and returned on each of Days 1 to 4 of Cycle 1 and Days 8 to 11 of Cycle 2 for study assessments.
(§9) The quantitation range for the M1 assay was 2.00 to 1000 ng/mL, the assay precision ranged from 3.0 to 4.1% and the mean accuracy ranged from −1.5 to 0.3%. The quantitation range for the M2 assay was 2.00 to 1000 ng/mL, the assay precision ranged from 3.0 to 4.3% and the mean accuracy ranged from −1.1 to 0.7%. The same assays were used in Study 2, with similar values for assay precision and accuracy.
as §4
(§10) The analyses utilized a fixed-sequence repeated measures mixed-effects linear model. All inferences were based on least squares (LS) means estimated from this model. All statistical analyses were conducted using SAS version 9.2 (SAS Institute, NC, USA). The sample size for both studies was based on the expected 90% CIs for the ratio of geometric mean AUCs. For Study 1, the within-patient CV was estimated to be 39.4% based on prior clinical PK data in cancer patients. […] For Study 2, the within-patient CV was estimated to be 31% based on more recent clinical PK data and a sample size of 16 patients was expected to provide 90% CIs of 0.83X, 1.21X.

[6] = cited from earlier work; remark: listed apart in the source
[7] = in vivo; for AUC0-last / AUC(0-inf) / Cmax / Tmax / t1/2: human, 30 mg
Procedure: as §1, §2, §3, §4, §5

[8] = human, in vivo; for mean t1/2 / median Tmax: 50 mg
Procedure: as §6, §7, §8, §9, §4, §10

[9] = Study 2, absence of itraconazole
[10] = human, plasma, oral, 50 mg, Study 1 esomeprazole arm, single 50 mg alisertib ECT, absence of esomeprazole, geometric mean (%CV)
[11] = human, plasma, oral, 50 mg, Study 1 rifampin arm, single 50 mg alisertib ECT, absence of rifampin, geometric mean (%CV)
[12] = human, plasma, oral, Study 1 esomeprazole arm, single 50 mg alisertib ECT, presence of esomeprazole 40 mg QD, geometric mean (%CV)
[13] = human, plasma, oral, Study 1 rifampin arm, single 50 mg alisertib ECT, presence of rifampin 600 mg QD, geometric mean (%CV)

SMILES: COc1cc(Nc2ncc3c(n2)-c2ccc(Cl)cc2C(c2c(F)cccc2OC)=NC3)ccc1C(=O)O [Alisertib]
CYP3A4-mediated metabolism as share of alisertib total clearance (estimated) (CYP3A4): approximately 60% | aqueous solubility ([1]; at acidic pH): low | pKa ([1]; free acid): 4.53 | t1/2 [2, 9]: 22.6 (10.3)^k h | Tmax [2, 9]: 2.9 (1.1, 10) h | t1/2 ([2]; Study 2, presence of itraconazole 200 mg QD): 25.4 (9.2)^l h | change in Cmax in the presence of itraconazole ([2]; Study 2, single 30 mg alisertib, itraconazole 200 mg QD versus alone): did not alter | AUC(0-inf) ([2]; human, plasma, oral, 30 mg): 14.8 µM·h | AUC(0-t) ([2]; human, plasma, oral, 30 mg): 13.5 µM·h | Cmax ([2]; human, plasma, oral, 30 mg): 986 nM | Tmax ([2]; human, plasma, oral, 30 mg, Tmax, Study 2, absence of itraconazole): ~3 h | half-life ([2]; human, plasma, oral, 30 mg, absence of itraconazole): ~23 h | Tmax ([2]; human, plasma, oral, Tmax, Study 2, presence of itraconazole 200 mg QD): 2.9 h | half-life ([2]; human, plasma, oral, presence of itraconazole 200 mg QD): ~25 h | leukocytes and neutrophils over the course of the study [3]: decreases were observed | vital signs or ECG findings [3]: no notable trends | patients who died during the study ([4]; Study 1, none deemed related to study treatment): Four | Alopecia, treatment-related ([4]; human, in vivo): 17 (31) n (%) | Anaemia, treatment-related ([4]; human, in vivo): 10 (18) n (%) | Decreased appetite, treatment-related ([4]; human, in vivo): 8 (15) n (%) | Dehydration, treatment-related ([4]; human, in vivo): 6 (11) n (%) | Diarrhea, treatment-related ([4]; human, in vivo): 18 (33) n (%) | Fatigue, treatment-related ([4]; human, in vivo): 14 (25) n (%) | Leukopenia, treatment-related ([4]; human, in vivo): 7 (13) n (%) | Nausea, treatment-related ([4]; human, in vivo): 10 (18) n (%) | Neutropenia, treatment-related ([4]; human, in vivo): 17 (31) n (%) | Stomatitis, treatment-related ([4]; human, in vivo): 14 (25) n (%) | Thrombocytopenia, treatment-related ([4]; human, in vivo): 7 (13) n (%) | Vomiting, treatment-related ([4]; human, in vivo): 8 (15) n (%) | patients with at least 1 adverse event ([4]; human, in vivo): 52 (95%) patients | treatment-related serious adverse events nausea and vomiting (each) ([4]; human, in vivo): 2 patients | leukocytes and neutrophils over the course of the study ([4]; in vivo): decreases were observed | patients with other serious adverse events considered treatment related ([4]; in vivo): Five | vital signs or ECG findings ([4]; in vivo): no notable trends | increase in alisertib AUCinf (systemic exposure) by esomeprazole ([5]; Study 1, single 50 mg alisertib, esomeprazole 40 mg QD): 28% | decrease in alisertib AUCinf (AUC) by rifampin ([5]; Study 1, single 50 mg alisertib, rifampin 600 mg QD): approximately 50% | change in Cmax in the presence of rifampin ([5]; Study 1, single 50 mg alisertib, rifampin 600 mg QD versus alone, metabolites not statistically compared): did not alter | t1/2 ([5]; Study 1 esomeprazole arm, single 50 mg alisertib ECT, absence of esomeprazole): 16.1 (5.4)^b h | Tmax ([5]; Study 1 esomeprazole arm, single 50 mg alisertib ECT, presence of esomeprazole 40 mg QD, median (minimum, maximum)): 3 (1, 8) h | t1/2 ([5]; Study 1 rifampin arm, single 50 mg alisertib ECT, absence of rifampin): 16.3 (6.6)^h | AUC0-last ([5]; Study 1 rifampin arm, single 50 mg alisertib ECT, absence of rifampin, plasma, geometric mean (%CV)): 17,936 (43%) nM*h | t1/2 ([5]; Study 1 rifampin arm, single 50 mg alisertib ECT, presence of rifampin 600 mg QD): 8.2 (5.5)^i h | Tmax ([5]; Study 1 rifampin arm, single 50 mg alisertib ECT, presence of rifampin 600 mg QD, median (minimum, maximum)): 2.1 (1, 6) h | AUC(0-inf) [5, 10]: 20.3 µM·h | AUC(0-inf) [5, 11]: 16.2 µM·h | AUC(0-t) [5, 10]: 19.6 µM·h | Cmax [5, 10]: 1500 nM | Cmax [5, 11]: 1450 nM | Tmax ([5]; human, plasma, oral, 50 mg, Tmax, Study 1 esomeprazole arm, single 50 mg alisertib ECT, absence of esomeprazole, median (minimum, maximum)): 4 h | Tmax ([5]; human, plasma, oral, 50 mg, Tmax, Study 1 rifampin arm, single 50 mg alisertib ECT, absence of rifampin, median (minimum, maximum)): 4 h | Tmax ([5]; human, plasma, oral, 50 mg, median Tmax, Study 1, both treatment arms, 50 mg alisertib administered alone): 3 to 4 h | half-life ([5]; human, plasma, oral, 50 mg, t1/2, Study 1 esomeprazole arm, single 50 mg alisertib ECT, absence of esomeprazole): ~16 h | half-life ([5]; human, plasma, oral, 50 mg, t1/2, Study 1 rifampin arm, single 50 mg alisertib ECT, absence of rifampin): ~16 h | AUC(0-inf) [5, 12]: 25.9 µM·h | AUC(0-inf) [5, 13]: 8.65 µM·h | AUC(0-t) [5, 12]: 24.5 µM·h | AUC(0-t) [5, 13]: 9.06 µM·h | Cmax [5, 12]: 1720 nM | Tmax ([5]; human, plasma, oral, Tmax, Study 1 rifampin arm, single 50 mg alisertib ECT, presence of rifampin 600 mg QD, median (minimum, maximum)): ~2 h | half-life ([5]; human, plasma, oral, t1/2, Study 1 esomeprazole arm, single 50 mg alisertib ECT, presence of esomeprazole 40 mg QD): ~16 h | half-life ([5]; human, plasma, oral, t1/2, Study 1 rifampin arm, single 50 mg alisertib ECT, presence of rifampin 600 mg QD): ~8 h | apparent oral clearance [6]: 4.25 L/h

AUC0-last [7]: 4962 (164%) nM*h | AUC(0-inf) [7]: 5758 (174%)^d nM*h | Cmax [7]: 287 nM | Tmax [7]: 3.1 (1, 23) h | t1/2 [7]: 23.0 (11.2)^h | mean t1/2 [8]: 15 to 18 h | median Tmax [8]: 4 h
SMILES: COc1cc(Nc2ncc3c(n2)-c2ccc(Cl)cc2C(c2c(F)cccc2OC)=NC3)ccc1C(=O)O[C@@H]1O[C@H](C(=O)O)[C@@H](O)[C@H](O)[C@H]1O [M1, alisertib acylglurcuronide]

AUC0-last [7]: 4977 (58%) nM*h | AUC(0-inf) [7]: 4926 (41%)^i nM*h | Cmax [7]: 100 nM | Tmax [7]: 9.4 (3.0, 48) h | t1/2 [7]: 28 (9.2)^i h | systemic exposure metabolite/parent ratio following multiple dose itraconazole [7]: decreased | mean t1/2 [8]: 19.1 to 22 h | median Tmax [8]: 10 h | change in mean AUC0-inf in the presence of rifampin ([8]; 600 mg): increased | change in mean t1/2 in the presence of rifampin ([8]; 600 mg): decreased
SMILES: COc1cc(Nc2ncc3c(n2)-c2ccc(Cl)cc2C(c2c(O)cccc2F)=NC3)ccc1C(=O)O [M2, O-desmethyl alisertib]
